The record followed here is paper PMC11208024, “Cholestenoic acid as endogenous epigenetic regulator decreases hepatocyte lipid accumulation in vitro and in vivo” (American Journal of Physiology - Gastrointestinal and Liver …, 2023).

Broadly, the inhibition is the share of the control response that was lost under treatment. Higher therefore signals strong suppression. As usually defined, the EC50 is the concentration at which the effect is half-maximal. For orientation: IC50 means the concentration needed to halve the response being measured.

What all share (type): biochemical
For assay [1], the target named is T1, DNA methyltransferases 1 (DNMT1) (Homo sapiens, UniProt P26358). Nature of the assay: positive control in radiometric DNMT1 assay; […] inhibition at […].
Assay [2] concerns the target T1, DNA methyltransferases 1 (DNMT1). The experiment in a line: radiometric methyltransferase assay with recombinant enzyme, poly(dI-dC) and 3H-SAM; activation at low, inhibition at higher concentration (IC50 […]).
The target in another assay is DNMT3b (Homo sapiens, UniProt Q9UBC3). Nature of the assay: radiometric methyltransferase assay with recombinant enzyme, Lambda DNA substrate and 3H-SAM.
In another assay the target is DNMT3a (Homo sapiens, UniProt Q9Y6K1). Described as above.
Sequence of DNMT3a (Q9Y6K1 whole entry, looked up): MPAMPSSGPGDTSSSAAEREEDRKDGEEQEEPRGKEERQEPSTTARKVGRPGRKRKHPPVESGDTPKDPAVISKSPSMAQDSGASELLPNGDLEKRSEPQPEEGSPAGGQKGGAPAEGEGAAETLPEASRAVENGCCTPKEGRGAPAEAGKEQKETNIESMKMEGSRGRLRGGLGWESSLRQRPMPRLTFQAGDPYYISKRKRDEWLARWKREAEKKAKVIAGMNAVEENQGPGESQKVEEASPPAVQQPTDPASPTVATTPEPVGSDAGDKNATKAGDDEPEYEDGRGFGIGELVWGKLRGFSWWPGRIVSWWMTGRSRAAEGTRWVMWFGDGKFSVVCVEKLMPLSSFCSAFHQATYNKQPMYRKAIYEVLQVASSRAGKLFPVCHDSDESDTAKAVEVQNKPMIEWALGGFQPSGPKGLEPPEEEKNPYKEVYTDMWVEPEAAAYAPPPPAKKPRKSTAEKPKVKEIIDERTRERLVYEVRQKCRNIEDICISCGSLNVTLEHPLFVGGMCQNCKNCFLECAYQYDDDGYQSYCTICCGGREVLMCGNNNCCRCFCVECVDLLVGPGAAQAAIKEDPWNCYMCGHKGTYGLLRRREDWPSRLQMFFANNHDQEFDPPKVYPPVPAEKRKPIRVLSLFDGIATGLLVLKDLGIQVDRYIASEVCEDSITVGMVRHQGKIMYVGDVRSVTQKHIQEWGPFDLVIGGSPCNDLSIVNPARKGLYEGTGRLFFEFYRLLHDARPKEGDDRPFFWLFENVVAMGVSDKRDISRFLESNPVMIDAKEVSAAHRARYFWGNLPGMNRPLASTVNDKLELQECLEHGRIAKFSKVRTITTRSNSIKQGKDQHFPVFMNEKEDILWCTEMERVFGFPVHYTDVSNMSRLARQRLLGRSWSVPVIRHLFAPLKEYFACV

T1 sequence (P26358 whole entry): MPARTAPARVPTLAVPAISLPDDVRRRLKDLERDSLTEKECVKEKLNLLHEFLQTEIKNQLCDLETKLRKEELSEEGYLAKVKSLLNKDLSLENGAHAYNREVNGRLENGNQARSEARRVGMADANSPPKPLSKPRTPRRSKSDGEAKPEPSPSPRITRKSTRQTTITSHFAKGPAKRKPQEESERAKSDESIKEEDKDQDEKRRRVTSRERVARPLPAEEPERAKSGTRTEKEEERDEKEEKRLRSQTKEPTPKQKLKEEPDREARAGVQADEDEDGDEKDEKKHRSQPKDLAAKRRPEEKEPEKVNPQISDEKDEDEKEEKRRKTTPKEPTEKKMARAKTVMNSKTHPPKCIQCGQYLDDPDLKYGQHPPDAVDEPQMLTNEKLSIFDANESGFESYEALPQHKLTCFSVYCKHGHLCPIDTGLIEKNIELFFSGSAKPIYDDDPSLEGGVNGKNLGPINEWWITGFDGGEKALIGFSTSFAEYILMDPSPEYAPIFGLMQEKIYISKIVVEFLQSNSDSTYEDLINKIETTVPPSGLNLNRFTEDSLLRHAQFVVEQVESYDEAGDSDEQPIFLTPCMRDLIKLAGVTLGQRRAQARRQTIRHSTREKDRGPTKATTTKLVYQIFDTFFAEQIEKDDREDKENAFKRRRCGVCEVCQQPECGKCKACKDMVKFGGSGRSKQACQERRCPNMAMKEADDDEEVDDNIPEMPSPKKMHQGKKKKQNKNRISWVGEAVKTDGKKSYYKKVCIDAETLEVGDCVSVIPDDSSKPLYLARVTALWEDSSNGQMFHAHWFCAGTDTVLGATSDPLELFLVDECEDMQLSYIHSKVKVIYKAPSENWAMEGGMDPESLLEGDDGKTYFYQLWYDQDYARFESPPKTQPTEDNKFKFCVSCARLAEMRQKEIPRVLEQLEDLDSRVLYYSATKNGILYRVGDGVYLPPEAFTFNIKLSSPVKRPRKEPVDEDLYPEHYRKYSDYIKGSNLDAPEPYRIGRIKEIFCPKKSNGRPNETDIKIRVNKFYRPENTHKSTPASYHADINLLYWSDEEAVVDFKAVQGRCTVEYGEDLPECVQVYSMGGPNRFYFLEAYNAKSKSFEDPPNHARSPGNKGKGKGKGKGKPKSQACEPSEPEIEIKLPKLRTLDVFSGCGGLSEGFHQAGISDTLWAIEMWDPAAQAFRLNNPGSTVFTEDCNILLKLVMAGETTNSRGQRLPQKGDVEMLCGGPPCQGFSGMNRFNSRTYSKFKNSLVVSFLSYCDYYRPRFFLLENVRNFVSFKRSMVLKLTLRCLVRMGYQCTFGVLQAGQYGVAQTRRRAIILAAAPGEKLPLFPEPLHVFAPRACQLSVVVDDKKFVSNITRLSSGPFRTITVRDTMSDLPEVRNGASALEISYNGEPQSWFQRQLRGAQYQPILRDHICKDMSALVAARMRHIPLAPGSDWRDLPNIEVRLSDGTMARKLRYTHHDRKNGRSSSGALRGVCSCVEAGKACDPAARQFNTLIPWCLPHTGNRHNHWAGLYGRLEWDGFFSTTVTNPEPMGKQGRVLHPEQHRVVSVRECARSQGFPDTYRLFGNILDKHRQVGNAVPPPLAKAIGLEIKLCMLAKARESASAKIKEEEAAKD

In turn, `Nc1ncnc2c1ncn2[C@@H]1O[C@H](CSCC[C@H](N)C(=O)O)[C@@H](O)[C@H]1O` [S-adenosyl homocysteine] showed an inhibition at 1 µM in assay [1] of 95%.
With `C[C@H](CCC[C@@H](C)[C@H]1CC[C@H]2[C@@H]3CC=C4C[C@@H](O)CC[C@]4(C)[C@H]3CC[C@]12C)C(=O)O` [CA, Cholestenoic acid], in assay [2], the EC50 was found to be 1.99 µM. For the same compound, the figures for the IC50 on DNMT3b and on DNMT3a were 4.89 µM and 8.41 µM, respectively.
